# Source: patent US20220339150A1, “ENDOCANNABINOID SYSTEM-TARGETING PRODRUGS AND THERAPEUTIC USES THEREOF” (priority 2021, published 2022)
# Entries after “also recorded” stand apart in the source; their conditions may differ. Where two headings read alike, the source gives them in different places.
# Columns and labels:
# [1] = Stability in 80% human plasma (serum); type: in vitro ADME; settings: 80% human serum (pH 7.4) at 37° C.; for half-life: human, serum
# Experimental: The rates of the degradation of the prodrugs were determined in 80% human serum (pH 7.4) at 37° C. as an indication of the susceptibility of prodrugs to undergo bioconversion after reaching the circulation. The reactions were initiated by adding the first 10 μL of the prodrug stock solution (10 mg/mL in DMSO) to 200 μL preheated sodium phosphate buffer solution (50 mM, pH 7.4, ionic strength 0.5), and then adding 800 μL preheated human serum. The solutions were stirred at a constant temperature of 37° C. At appropriate intervals, 50 μL of samples were mixed with 150 μL of ice-cold MeOH. After immediate mixing and centrifugation (5 min at 14.000 rpm), the resulting clear supernatant was analyzed for the remaining prodrug by HPLC.
# [2] = system: reconstructed human oral buccal epithelium cells (SkinEthic HOE, TR146 cells); assay: In vitro buccal permeability (SkinEthic human oral epithelium); type: in vitro ADME; settings: for Buccal permeation compared with parent cannabinoid (in words): 5% ethanol suspension; for Species making up the buccal flux (parent vs intact prodrug): Table 2; for Species making up the buccal flux (parent vs intact prodrug) / Species making up the buccal flux / formation of parent cannabinoid: remark in flux cell; for Flux compared with parent cannabinoid / Species making up the buccal flux / formation of parent cannabinoid / Flux (buccal): Table 4; for Flux compared with parent cannabinoid: buccal flux relative to parent; for Flux (buccal): suspension ca. 2 mg/ml in 5% EtOH/phosphate buffer pH 6.8, 37° C., receiver 15% HP-β-cyclodextrin
# Experimental: The in vitro permeability studies were carried out in commercial reconstructed human oral buccal epithelium cells (SkinEthic™ human oral epithelium). The SkinEthic™ HOE model is composed of TR146 cells (derived from a squamous cell carcinoma of the buccal mucosa) cultivated on an inert polycarbonate filter at the air-liquid interface in a chemically defined medium. This model forms an epithelial tissue devoid of stratum corneum, resembling histologically to the mucosa of the oral cavity.
# Upon receiving the cells, each insert (0.5 cm^2 or 0.33 cm^2) was placed in a plate containing 800 μL fresh medium at room temperature. The culture dishes were placed in the incubator at 37° C., 5% CO2, and saturated humidity overnight. Next day, the inserts were placed in a plate containing 800 μL 15% HP-β-cyclodextrin in H2O. The prodrugs were dissolved in 100% EtOH (5% (V/V) final conc.), and then sodium phosphate buffer solution (50 mM, pH 6.8, isotonic, 37° C.) was added (95% (V/V) final conc.). 400 μL of the prodrugs were applied as suspensions (ca. 2 mg/ml). The plates were stirred gently at 37° C. At appropriate intervals, the receptor compartment was sampled (100 μL) and replenished with fresh […] solution each time. The samples were mixed with 100 μL of MeOH, and analyzed for drug (both the parent cannabinoid and the prodrug) by HPLC-MS.
# The buccal flux-values for the rate of delivery of drugs were determined from Fick's law of diffusion.
# [3] = Stability in aqueous solutions (sodium phosphate buffer, 37° C.); type: physicochemical; settings: for half-life: buffer; for Half-life in aqueous solution: Table 5
# Experimental: […] The solutions of prodrugs were prepared by adding 10 μL of stock solution (10 mg/mL in DMSO) to the preheated buffer. The solutions were stirred at a constant temperature of 37° C. At appropriate intervals, 75 μL of samples were mixed with 75 μL of MeOH and analyzed for remaining prodrug by HPLC.
# The pseudo-first-order rate constants (kobs) and half-lives (t1/2) for the degradation of the prodrugs were determined from the linear slopes of the plots by taking the logarithm of the remaining prodrug over time. Equations: kobs=slope/−2.303 and t1/2=ln2/kobs.
# [4] = Metabolic stability in human liver microsomes; type: in vitro ADME; settings: for half-life / half-life at 15 µg/mL: both sexes, human, microsomes; for Half-life in human liver microsomes (single determinations): Table 5
# Experimental: The prodrugs were incubated with the human liver microsomes at 37° C. as an indication of the susceptibility of prodrugs to undergo bioconversion in the liver. The reactions were initiated by adding 1.5 μL of the prodrug stock solution (10 mg/mL in DMSO) to a preheated solution consisting of 748.5 μL potassium phosphate buffer solution (20 mM, pH 7.4, ionic strength 0.5), 200 μL NADPH, and 50 μLhuman liver microsomes (mixed gender, 0.5 ml at 20 mg/mL). The solutions were stirred at a constant temperature of 37° C. At appropriate intervals, 50 μLof samples were mixed with 100 μL of ice-cold MeOH. After immediate mixing and centrifugation (5 min at 14.000 rpm), the resulting clear supernatant was analyzed for the remaining prodrug by HPLC.
# [5] = pH 6.8, Table 3, aqueous buffer pH 6.8, 37° C., read-out: Half-life in aqueous solution (converted)
# [6] = pH 7.4, Table 3, 37° C., NADPH, read-out: Half-life in human liver microsomes (single determinations) (converted)
# [7] = aqueous buffer pH 6.8, 37° C., single determinations
# [8] = pH 6.8, Table 5, aqueous buffer pH 6.8, 37° C., single determinations, read-out: Half-life in aqueous solution (converted)
# [9] = pH 7.4, Table 5, 37° C., NADPH, read-out: Half-life in human liver microsomes (single determinations) (converted)
# [10] = pH 7.4, Table 5, average of determinations, read-out: Half-life in human liver microsomes (avg.) (converted)
Structure (SMILES),Buccal permeation compared with parent cannabinoid (in words) [2],Half-life in serum ([1]; Table 5),Flux compared with parent cannabinoid [2],Species making up the buccal flux / formation of parent cannabinoid [2],Flux (buccal) [2],"Half-life in aqueous solution [3, 7] [h]","half-life [3, 8] [h]","Half-life in human liver microsomes (single determinations) ([4]; 37° C., NADPH) [h]","half-life at 15 µg/mL [4, 10] [h]","half-life [4, 10] [h]",other results
"C=C(C)[C@@H]1CCC(C)=C[C@H]1c1c(O)cc(CCCCC)cc1OC(=O)CN1CCN(C)CC1 [CBDp7, (1′R,2′R)-6-hydroxy-5′-methyl-4-pentyl-2′-(prop-1-en-2-yl)-1′,2′,3′,4′-tetrahydro-[1,1′-biphenyl]-2-yl 2-(4-methylpiperazin-1-yl)acetate]",better than that of CBD,,,,,,,,,,"half-life ([1]; pH 7.4, Table 3): 2.6 h; Species making up the buccal flux (parent vs intact prodrug) [2]: 1/3 CBD & 2/3; half-life [3, 5]: 0.16 h; half-life [4, 6]: 0.12 h"
"C=C(C)[C@@H]1CCC(C)=C[C@H]1c1c(OC(=O)N2CCN(C)CC2)cc(CCCCC)cc1OC(=O)N1CCN(C)CC1 [CBDp14, (1′R,2′R)-5′-methyl-4-pentyl-2′-(prop-1-en-2-yl)-1′,2′,3′,4′-tetrahydro-[1,1′-biphenyl]-2,6-diyl bis(4-methylpiperazine-1-carboxylate)]",better than that of CBD; also recorded: significantly improved permeability compared to CBD,,,,,,,,,,"Half-life in serum ([1]; Table 3): stable; Species making up the buccal flux (parent vs intact prodrug) [2]: only intact prodrug; half-life ([3]; Table 3 footnote f, 20% of ethanol in the solution, read-out: Half-life in aqueous solution with ethanol): 50 h; half-life [3, 5]: 2.5 h; half-life at 15 µg/mL [4, 6]: 0.86 h"
"CCCCCc1cc(O)c(C/C=C(\C)CCC=C(C)C)c(OC(=O)N2CCN(C)CC2)c1 [CBGp2, (E)-2-(3,7-dimethylocta-2,6-dien-1-yl)-3-hydroxy-5-pentylphenyl 4-methylpiperazine-1-carboxylate]",,No degradation,No improvement,NO significant formation of CBG,4.45 ± 0.45 (prodrug) nmol/cm^2/h,1.17,1.14,1.73,1.68,,"half-life at 15 µg/mL [4, 9]: 1.62 h"
"CCCCCc1cc(OC(=O)N2CCN(C)CC2)c(C/C=C(\C)CCC=C(C)C)c(OC(=O)N2CCN(C)CC2)c1 [CBGp3, (E)-2-(3,7-dimethylocta-2,6-dien-1-yl)-5-pentyl-1,3-phenylene bis(4-methylpiperazine-1-carboxylate)]",,No degradation,2.6-times better,NO significant formation of CBGp2 or,30.60 ± 2.02 (prodrug) nmol/cm^2/h,0.38,0.28,,1.9,,Flux compared with parent cannabinoid ([2]; listed as bis-methylpiperazine carbamate prodrug of CBG): 2.6 times
"CCCCCc1cc(O)c(C/C=C(\C)CCC=C(C)C)c(OC(=O)N2CCNCC2)c1 [CBGp5, (E)-2-(3,7-dimethylocta-2,6-dien-1-yl)-3-hydroxy-5-pentylphenyl piperazine-1-carboxylate]",,No degradation,No improvement,NO significant formation of CBG,10.31 ± 0.54 (prodrug) nmol/cm^2/h,0.26,0.38,1.79,1.54,,"half-life at 15 µg/mL [4, 9]: 1.29 h"
"CCCCCc1cc(OC(=O)N2CCN(C)CC2)c2c(c1)OC(C)(C)[C@@H]1CCC(C)=C[C@@H]21 [THCp1, (6aR,10aR)-6,6,9-trimethyl-3-pentyl-6a,7,8,10a-tetrahydro-6H-benzo[c]chromen-1-yl 4-methylpiperazine-1-carboxylate]",,No degradation,No improvement,NO significant formation of THC,19.22 ± 0.29 (prodrug) nmol/cm^2/h,0.41,0.66,5.02,,3.83,"half-life [4, 9]: 2.64 h"
"CCCCCc1cc(OC(=O)C2CCNC2)c2c(c1)OC(C)(C)[C@@H]1CCC(C)=C[C@@H]21 (stereo partly drawn) [THCp2, (6aR,10aR)-6,6,9-trimethyl-3-pentyl-6a,7,8,10a-tetrahydro-6H-benzo[c]chromen-1-yl pyrrolidine-3-carboxylate]",,0.43 h,,,,0.46,0.49,2.79,,2.44,"half-life ([1]; pH 7.4, Table 5): 0.42 h; half-life [4, 9]: 2.09 h"
"CCCCCc1cc(OC(=O)N2CCNCC2)c2c(c1)OC(C)(C)[C@@H]1CCC(C)=C[C@@H]21 [THCp3, (6aR,10aR)-6,6,9-trimethyl-3-pentyl-6a,7,8,10a-tetrahydro-6H-benzo[c]chromen-1-yl piperazine-1-carboxylate]",slightly better than THC,No degradation,1.6-times better,NO significant formation of THC,31.30 ± 1.31 (prodrug) nmol/cm^2/h,1.07,0.76,,,3.65,
